Results published in US5112741A, “Acetaldehyde trapping system” (Enzymatics, Inc., priority 1988, dated 1992).

Tests used:
[1] = test system: ADH; assay: Enzymatic oxidation of 65 mM ethanol by ADH/NAD in presence of trapping mixture; assay type: biochemical; details: 650 mM, Tris without alpha-effect amine, or carboxymethoxyamine and borate buffer without primary amine
Method: To a reaction mixture containing 5 IU ADH, 100 mM NAD, pH 9.5 and 65 mM ethanol was added a trapping mixture containing:
50 mM Carboxymethoxyamine, pH 10
A trapping mixture containing:
150 mM Carboxymethoxyamine, pH 10
was substituted for the trap in Example 1.
100 mM Hexanediamine, pH 10
150 mM Allylhydroxylamine, pH 9.8
100 mM Nitrobenzylhydroxylamine, pH 10

[2] = test system: alcohol dehydrogenase; assay: Relative equilibrium constants of trapping agents from NADH production by alcohol dehydrogenase after 10 minutes; assay type: biochemical; details: 5 mM trapping agent, 200 mM Glycine pH 9.5, 10 mM NAD, 5 mM ethanol, 125 IU ADH
Method: The relative equilibrium constants for trapping agents are listed below in Table 1. […] The reaction formulation was as follows: […] 5 mM ethanol 5 mM trapping agent 125 IU ADH

[3] = test system: alcohol dehydrogenase (ADH); details: background statement; cited from earlier work
[4] = Trapping of aldehyde/ketone oxidation product and alcohol conversion in enzymatic determination of alcohol (general statements); assay type: biochemical; details: diamine alone, without alpha-effect amine
Excerpt: For reasons which are not well understood at the present time, the use of a combination of alpha-effect and primary amines according to the present invention dramatically increases the aldehyde/ketone trapping capacity of the amine trap, as compared to prior art amine traps consisting essentially of primary amine or of alpha-effect amine. Increases in trapping capacity, as measured by effective inactivation of aldehyde/ketone oxidation product in the reaction mixture, of up to about 100-fold over known prior art traps are typical.
With proper selection of amines, typical substrate conversions of about 100% are obtainable without dilution of the sample alcohol concentrations up to about 150 mM, thus permitting accurate and reliable end-point determinations. Such conversions are obtained by selection of amines for trap efficiency so that accumulation of active oxidation product is avoided. This ensures that a favorable reaction equilibrium is established, and that the catalyzing enzyme is not deactivated by oxidation product; the use of amines in the practice of the invention which tend to deactivate the catalyzing enzyme should, of course, be avoided.

[5] = test system: alcohol dehydrogenase (ADH); details: cited from earlier work

Compound | RELATIVE EQUILIBRIUM CONSTANT [2] | other results
NOCC(=O)O [Carboxymethoxyamine] | 38.6 | Alcohol oxidation, single amine type [1]: did not result in the complete oxidation of the alcohol
CC=O [acetaldehyde] |  | Acetaldehyde concentration that inhibits alcohol dehydrogenase [3]: greater than 1 mM
CCON [Ethylhydroxylamine] | 11.8 | 
NCCCCCCN [1,6-hexanediamine] |  | Performance as sole trapping agent [4]: very satisfactory results are obtained
Nitrobenzylhydroxylamine | 202.0 | 
NC(CO)(CO)CO [Tris, Tris hydroxyl methylamine methane] | .2 | Alcohol oxidation, single amine type [1]: did not result in complete alcohol oxidation; Conversion of the alcohol ([5]; ADH confined by semi-permeable membrane, continuous flow): about 18%; Capability of trapping high acetaldehyde concentrations ([5]; Tris by itself, acetaldehyde on the order of 85 mM): not capable by itself of reacting with and removing such high concentrations of acetaldehyde
NOCc1ccccc1 [O-Benzylhydroxylamine] | 40.9 | 
C=CCON [Allylhydroxylamine] | 25.3 | 
CON [Methoxyamine] | 11.7 | 
